Results on nine compounds are retold here after ChEMBL document CHEMBL1201862, “PubChem BioAssay data set” (2004).

Assay [1] in a line: A Cell Based Assay for the Identification of Probe candidate Compounds with Anti- Venezuelan Equine Encephalitis virus. [Related pubchem assays: 2409, 2419, 1621, 2238, 2405, 2024, 2065, 2402, 2414, 1635, 1650, 2244 ]. It counts as functional.
The test system of assay [2] is Vero. Kind of assay: cytotoxicity of synthesized analogs in Vero cells, SAR follow-up, cytotoxicity control for West Nile virus antiviral project, cell-based, set II (AID 2402). The class given is functional. To be noted: Chlorocebus sabaeus.
Assay [3] addresses T1, Ubiquitin-conjugating enzyme E2 N (Homo sapiens, UniProt P61088).
T1 sequence (P61088 whole entry): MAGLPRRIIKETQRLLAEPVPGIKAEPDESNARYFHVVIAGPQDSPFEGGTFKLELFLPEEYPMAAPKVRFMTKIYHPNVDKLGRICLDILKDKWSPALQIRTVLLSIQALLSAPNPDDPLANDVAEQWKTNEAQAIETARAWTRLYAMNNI
It counts as functional.

The test system of assay [4] is Vero. Put plainly: cytotoxicity of synthesized analogs in Vero 76, SAR follow-up, cytotoxicity control for West Nile virus antiviral project, Vero 76 cells (AID 2414). It counts as functional. Particulars: Chlorocebus sabaeus.
Assay [5] concerns Vero. Put plainly: Vero E6 cell cytotoxicity, SAR follow-up, cytotoxicity control for West Nile virus antiviral project, synthesized analogs (AID 2244). The class given is functional. To be noted: Chlorocebus sabaeus.
Assay [6] deals with Vero. Put plainly: West Nile virus CPE inhibition, SAR follow-up, cell-based, synthesized analogs (AID 2238). The class given is functional. To be noted: Chlorocebus sabaeus.
Assay [7] deals with Alkaline phosphatase, placental type (Homo sapiens, UniProt P05187). Kind of assay: PLAP enzyme inhibitors, confirmation, biochemical, luminescence (AID 1512). It counts as functional.
In assay [8] the target is Glyceraldehyde-3-phosphate dehydrogenase (Homo sapiens, UniProt P04406).
The next assay has as its target T2, Insulin-degrading enzyme (Homo sapiens, UniProt P14735).
T2 sequence (P14735 whole entry): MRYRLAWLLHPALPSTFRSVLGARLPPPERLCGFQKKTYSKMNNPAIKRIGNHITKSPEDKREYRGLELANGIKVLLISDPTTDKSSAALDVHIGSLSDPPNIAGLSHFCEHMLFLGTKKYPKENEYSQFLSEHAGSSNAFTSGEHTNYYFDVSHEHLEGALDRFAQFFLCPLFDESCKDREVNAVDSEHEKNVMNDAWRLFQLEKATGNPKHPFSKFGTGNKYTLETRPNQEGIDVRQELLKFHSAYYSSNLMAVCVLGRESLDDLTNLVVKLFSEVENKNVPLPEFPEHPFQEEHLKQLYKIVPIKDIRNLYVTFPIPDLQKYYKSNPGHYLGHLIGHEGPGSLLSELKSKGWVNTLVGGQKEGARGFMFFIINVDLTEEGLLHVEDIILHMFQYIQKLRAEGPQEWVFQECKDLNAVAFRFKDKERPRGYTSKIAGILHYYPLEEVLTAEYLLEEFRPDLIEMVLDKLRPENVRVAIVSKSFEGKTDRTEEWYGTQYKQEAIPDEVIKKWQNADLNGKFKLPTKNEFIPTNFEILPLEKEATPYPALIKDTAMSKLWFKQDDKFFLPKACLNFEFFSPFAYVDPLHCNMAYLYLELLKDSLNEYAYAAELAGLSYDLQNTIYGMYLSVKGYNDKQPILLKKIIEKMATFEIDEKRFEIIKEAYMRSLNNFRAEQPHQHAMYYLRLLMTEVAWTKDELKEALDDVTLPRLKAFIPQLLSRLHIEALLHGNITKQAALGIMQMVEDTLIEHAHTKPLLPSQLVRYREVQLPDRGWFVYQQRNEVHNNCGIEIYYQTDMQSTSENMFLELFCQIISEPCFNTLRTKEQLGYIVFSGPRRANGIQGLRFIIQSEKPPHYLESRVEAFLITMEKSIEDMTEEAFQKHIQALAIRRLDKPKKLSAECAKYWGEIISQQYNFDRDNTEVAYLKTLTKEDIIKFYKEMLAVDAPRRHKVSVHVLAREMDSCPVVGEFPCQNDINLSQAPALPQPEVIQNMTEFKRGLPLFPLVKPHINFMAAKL
Put plainly: Dose Response: Fluorescence polarization-based cell-based high throughput dose response assay for inhibitors of insulin-degrading enzyme (IDE). [Related pubchem assays: 434962 (Primary screen (IDE inhibitors in singlicate)), 449730 (Counterscreen (Cytotoxicity in triplicate)), 435028 (Confirmation (IDE inhibitors in triplicate)), 434984 (Summary …. It counts as functional. (Fluorescence polarisation rises when a labelled molecule tumbles more slowly, as on binding a larger partner.)

In assay [9] the target is 72 kDa type IV collagenase (Homo sapiens, UniProt P08253). Kind of assay: Dose Response validation of uHTS RPN11 inhibitor hits using a MMP-2 Fluorescence assay. It counts as functional.
Assay [10] is described as follows: Counterscreen for IDE inhibitors: Luminescence-based cell-based high throughput dose response assay to identify compounds that are cytotoxic to HEK cells. [Related pubchem assays: 434962 (Primary screen (IDE inhibitors in singlicate)), 449730 (Counterscreen (Cytotoxicity in triplicate)), 435028 (Confirmation (IDE inhibitors in triplicate)) …. It counts as functional. Particulars: HEK293. (Counterscreens check selectivity or assay interference.)

Assay [11] concerns the target T3, Kappa-type opioid receptor (Homo sapiens, UniProt P41145). The class given is functional.
For assay [12], the target named is T4, Rac GTPase-activating protein 1 (Homo sapiens, UniProt Q9H0H5).
T4 sequence (Q9H0H5 whole entry): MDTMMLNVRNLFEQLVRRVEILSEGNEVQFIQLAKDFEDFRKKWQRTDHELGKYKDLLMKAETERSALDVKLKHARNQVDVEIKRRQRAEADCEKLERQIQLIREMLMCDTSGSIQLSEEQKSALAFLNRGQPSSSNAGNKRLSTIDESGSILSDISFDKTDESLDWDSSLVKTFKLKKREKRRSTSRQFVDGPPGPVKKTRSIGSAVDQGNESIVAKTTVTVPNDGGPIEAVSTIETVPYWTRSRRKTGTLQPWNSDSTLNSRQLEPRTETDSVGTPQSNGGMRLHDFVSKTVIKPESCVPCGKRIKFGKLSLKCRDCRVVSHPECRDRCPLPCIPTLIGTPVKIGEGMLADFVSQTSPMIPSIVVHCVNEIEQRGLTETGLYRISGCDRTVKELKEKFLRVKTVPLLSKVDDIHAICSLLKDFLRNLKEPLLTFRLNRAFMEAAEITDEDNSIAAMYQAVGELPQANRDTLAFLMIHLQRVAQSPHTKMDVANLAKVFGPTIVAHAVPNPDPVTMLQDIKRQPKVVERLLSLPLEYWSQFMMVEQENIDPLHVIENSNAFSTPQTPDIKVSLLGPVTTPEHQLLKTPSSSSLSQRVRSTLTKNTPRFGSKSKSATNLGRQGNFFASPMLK
Put plainly: MgcRacGAP GTPase-activating activity inhibitors, confirmation, biochemical, ADP Hunter fluorescence, primary and confirmatory (AID 624330). The class given is functional.

The target in assay [13] is 26S proteasome non-ATPase regulatory subunit 14 (Homo sapiens, UniProt O00487). Kind of assay: inhibition of proteasome subunit RPN11 – biochemical, fluorescence polarization, uHTS hits, confirmation (AID 602368). The class given is functional.
The target in the next assay is Prothrombin (Bos taurus, UniProt P00735). Put plainly: thrombin inhibition, dose response, biochemical, fluorescence polarization, uHTS hits (AID 602369). The class given is functional.
A further assay has as its target Beta-galactosidase (Escherichia coli, UniProt Q8VNN2). It counts as functional.
In assay [14] the target is T3, Kappa-type opioid receptor. The class given is functional. The source holds these as a separate data set.
Another assay has as its system T-cell. Kind of assay: inhibitors of CD8+ T cell–vesicle binding, dose response, mouse 2C CD8+ T cells, flow cytometry (AID 485284). It counts as functional. (In general: A flow cytometer gives signals particle by particle.)
The target of assay [15] is Polyadenylate-binding protein 1 (Homo sapiens, UniProt P11940). Put plainly: PABP inhibition in translation initiation, SAR follow-up (AID 435018). The class given is functional.
The target of assay [16] is Eukaryotic translation initiation factor 4H (Homo sapiens, UniProt Q15056). Kind of assay: eIF4H inhibition in translation initiation, SAR follow-up (AID 435011). The class given is functional.
Another assay has as its target Hexokinase (Trypanosoma brucei, UniProt Q38C41). Put plainly: Confirmation assay for inhibitors of Trypanosoma brucei hexokinase 1-Analogue-first series. [Related pubchem assays (depositor defined):AID1430, AID1632, AID2516, AID2560, AID2579, AID2600, AID449725, AID492951]. It counts as functional.
The target of another assay is CAAX prenyl protease 2 (Saccharomyces cerevisiae S288c, UniProt Q03530). It counts as biochemical.
The next assay deals with Trypsin (Sus scrofa, UniProt P00761). Kind of assay: porcine trypsin inhibitors, dose response, selectivity assay for Rce1 protease inhibitor project, biochemical, quenched peptide fluorescence, cherry-pick (AID 488789).
Assay [17] concerns the target Multidrug resistance protein CDR2 (Candida albicans (strain SC5314 / ATCC MYA-2876) (Yeast), UniProt P78595). Kind of assay: CaCDR2 efflux pump inhibitors in yeast, dose response, S. cerevisiae AD1-8u, singleplex, Cherry Pick2 set (AID 623994). It counts as functional. Particulars: read-out: EC50_MICROM.
The target of another assay is Integrin alpha-4 (Homo sapiens, UniProt P13612). Put plainly: VLA-4 integrin allosteric ligands, SAR follow-up, cell-based, LIBS antibody binding, flow cytometry (AID 488791). The class given is functional.
The next assay deals with Melanocortin receptor 4 (Homo sapiens, UniProt P32245). It counts as functional, cell-based.
In a further assay the target is Paired box protein Pax-8 (Homo sapiens, UniProt Q06710). Kind of assay: inhibitors of PAX8-driven TPO luciferase reporter, dose response, RMG-I cells, cherry-pick (AID 687027).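 Note: luciferase reporter driven by Pax8 target thyroperoxidase promoter measured by SteadyGlo luminescence.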 The class given is functional, cell-based.
Assay [18] is described as follows: Luminescence Cell-Based Dose Retest to Confirm Inhibitors of Cancer Stem Cells. [Related pubchem assays (depositor defined):AID2717, AID2721]. The class given is functional. Particulars: Homo sapiens.
Assay [19] can be described thus: non-specific cell cytotoxicity, dose response, cytotoxicity control for PAX8 inhibitor project, plate reader, dry powder samples (AID 743021). It counts as functional, cell-based.
A further assay has as its system INS1. Put plainly: beta cell apoptosis inhibitors, cytokine rescue, dose response, luminescence, retest (AID 449756).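 Note: cell death triggered by IL-1 beta plus TNF-alpha plus IFN-gamma mixture; protective hits raise ATP signal compared with cytokine alone wells.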 Particulars: Rattus norvegicus. It counts as functional, cell-based.
A short description of assay [20]: cytotoxicity in HEK-293T cells, dose response, cytotoxicity control for TCR NF-kB inhibitor project, luminescence, T-cell screen hits (AID 489026).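 Note: cells exposed to compound about 14 hours before the viability readout.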 It counts as functional, cell-based.
Assay [21] has as its target E3 ubiquitin-protein ligase Mdm2/Protein Mdm4 (Homo sapiens, UniProt O15151+Q00987). Kind of assay: Mdm2-MdmX interaction inhibitors, dose response, luminescence detection (AID 504593). It counts as functional.

Structures are written as SMILES. The source made the active and inactive calls. A value given as a limit tells only on which side of the number the result lay.

T3 sequence (P41145 whole entry): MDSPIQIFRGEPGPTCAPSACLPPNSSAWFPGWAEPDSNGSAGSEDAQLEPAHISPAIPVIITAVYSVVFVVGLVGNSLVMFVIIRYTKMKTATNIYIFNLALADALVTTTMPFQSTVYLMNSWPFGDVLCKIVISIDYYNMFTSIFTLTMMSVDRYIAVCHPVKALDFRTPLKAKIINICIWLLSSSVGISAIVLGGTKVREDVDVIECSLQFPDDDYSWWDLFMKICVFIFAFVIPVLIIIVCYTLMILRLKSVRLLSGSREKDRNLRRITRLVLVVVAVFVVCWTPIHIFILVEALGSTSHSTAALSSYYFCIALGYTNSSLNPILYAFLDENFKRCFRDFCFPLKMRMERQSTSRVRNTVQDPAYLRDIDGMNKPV
Chain of Trypsin (P00761 whole entry): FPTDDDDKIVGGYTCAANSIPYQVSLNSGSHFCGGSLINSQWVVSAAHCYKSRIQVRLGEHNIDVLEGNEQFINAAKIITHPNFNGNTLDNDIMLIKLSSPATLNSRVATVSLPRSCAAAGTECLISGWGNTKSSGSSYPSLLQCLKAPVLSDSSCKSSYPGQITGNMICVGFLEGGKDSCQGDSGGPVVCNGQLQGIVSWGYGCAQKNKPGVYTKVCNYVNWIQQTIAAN
Chain of Melanocortin receptor 4 (P32245 whole entry): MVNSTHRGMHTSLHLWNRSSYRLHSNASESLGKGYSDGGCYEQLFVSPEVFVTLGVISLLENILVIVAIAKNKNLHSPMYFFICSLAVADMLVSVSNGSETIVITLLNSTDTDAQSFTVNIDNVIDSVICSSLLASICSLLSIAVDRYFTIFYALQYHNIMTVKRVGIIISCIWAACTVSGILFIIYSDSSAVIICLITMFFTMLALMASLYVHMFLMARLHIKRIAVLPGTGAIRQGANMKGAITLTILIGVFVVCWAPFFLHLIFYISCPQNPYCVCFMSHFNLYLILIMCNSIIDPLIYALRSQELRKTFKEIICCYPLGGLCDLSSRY
Chain of Hexokinase (Q38C41 whole entry): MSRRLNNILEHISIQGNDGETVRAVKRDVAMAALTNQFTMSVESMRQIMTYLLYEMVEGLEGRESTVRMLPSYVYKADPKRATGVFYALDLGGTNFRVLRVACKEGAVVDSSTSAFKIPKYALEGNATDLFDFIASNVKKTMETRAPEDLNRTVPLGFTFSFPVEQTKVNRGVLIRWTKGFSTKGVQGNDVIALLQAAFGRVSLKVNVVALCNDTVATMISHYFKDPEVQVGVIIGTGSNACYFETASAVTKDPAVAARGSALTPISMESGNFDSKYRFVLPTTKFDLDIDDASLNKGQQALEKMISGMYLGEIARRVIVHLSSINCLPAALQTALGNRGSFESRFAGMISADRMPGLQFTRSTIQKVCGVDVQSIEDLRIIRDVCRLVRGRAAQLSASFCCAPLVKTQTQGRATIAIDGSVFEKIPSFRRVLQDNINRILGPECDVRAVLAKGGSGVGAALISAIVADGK
Chain of Beta-galactosidase (Q8VNN2 whole entry): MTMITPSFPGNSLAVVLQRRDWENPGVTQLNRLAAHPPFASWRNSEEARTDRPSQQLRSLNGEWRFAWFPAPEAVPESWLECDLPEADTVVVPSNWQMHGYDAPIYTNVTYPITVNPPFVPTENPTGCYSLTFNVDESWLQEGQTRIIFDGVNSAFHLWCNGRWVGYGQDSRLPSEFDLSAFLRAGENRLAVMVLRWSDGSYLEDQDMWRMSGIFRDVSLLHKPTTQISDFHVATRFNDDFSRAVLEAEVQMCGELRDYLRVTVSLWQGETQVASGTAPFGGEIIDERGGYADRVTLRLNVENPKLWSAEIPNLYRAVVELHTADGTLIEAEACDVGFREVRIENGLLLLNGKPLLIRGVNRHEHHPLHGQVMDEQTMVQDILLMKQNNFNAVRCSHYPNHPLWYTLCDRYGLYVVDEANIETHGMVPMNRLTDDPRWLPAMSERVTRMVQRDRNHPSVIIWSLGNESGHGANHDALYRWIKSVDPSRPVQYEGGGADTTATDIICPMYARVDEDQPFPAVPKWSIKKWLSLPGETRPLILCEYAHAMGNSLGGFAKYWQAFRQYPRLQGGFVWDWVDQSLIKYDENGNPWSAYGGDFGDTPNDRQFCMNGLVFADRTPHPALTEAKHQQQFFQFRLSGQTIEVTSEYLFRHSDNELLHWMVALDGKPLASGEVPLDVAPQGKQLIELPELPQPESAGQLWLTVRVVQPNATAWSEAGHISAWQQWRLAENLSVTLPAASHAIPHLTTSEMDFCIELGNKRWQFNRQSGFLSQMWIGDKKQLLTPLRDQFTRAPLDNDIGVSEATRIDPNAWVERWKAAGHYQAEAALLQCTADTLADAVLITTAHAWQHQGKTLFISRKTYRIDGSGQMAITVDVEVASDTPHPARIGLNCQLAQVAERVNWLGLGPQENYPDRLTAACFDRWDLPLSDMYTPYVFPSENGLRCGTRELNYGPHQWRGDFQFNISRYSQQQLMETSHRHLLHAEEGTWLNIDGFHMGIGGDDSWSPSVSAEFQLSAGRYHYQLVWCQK
Chain of Multidrug resistance protein CDR2 (P78595 whole entry): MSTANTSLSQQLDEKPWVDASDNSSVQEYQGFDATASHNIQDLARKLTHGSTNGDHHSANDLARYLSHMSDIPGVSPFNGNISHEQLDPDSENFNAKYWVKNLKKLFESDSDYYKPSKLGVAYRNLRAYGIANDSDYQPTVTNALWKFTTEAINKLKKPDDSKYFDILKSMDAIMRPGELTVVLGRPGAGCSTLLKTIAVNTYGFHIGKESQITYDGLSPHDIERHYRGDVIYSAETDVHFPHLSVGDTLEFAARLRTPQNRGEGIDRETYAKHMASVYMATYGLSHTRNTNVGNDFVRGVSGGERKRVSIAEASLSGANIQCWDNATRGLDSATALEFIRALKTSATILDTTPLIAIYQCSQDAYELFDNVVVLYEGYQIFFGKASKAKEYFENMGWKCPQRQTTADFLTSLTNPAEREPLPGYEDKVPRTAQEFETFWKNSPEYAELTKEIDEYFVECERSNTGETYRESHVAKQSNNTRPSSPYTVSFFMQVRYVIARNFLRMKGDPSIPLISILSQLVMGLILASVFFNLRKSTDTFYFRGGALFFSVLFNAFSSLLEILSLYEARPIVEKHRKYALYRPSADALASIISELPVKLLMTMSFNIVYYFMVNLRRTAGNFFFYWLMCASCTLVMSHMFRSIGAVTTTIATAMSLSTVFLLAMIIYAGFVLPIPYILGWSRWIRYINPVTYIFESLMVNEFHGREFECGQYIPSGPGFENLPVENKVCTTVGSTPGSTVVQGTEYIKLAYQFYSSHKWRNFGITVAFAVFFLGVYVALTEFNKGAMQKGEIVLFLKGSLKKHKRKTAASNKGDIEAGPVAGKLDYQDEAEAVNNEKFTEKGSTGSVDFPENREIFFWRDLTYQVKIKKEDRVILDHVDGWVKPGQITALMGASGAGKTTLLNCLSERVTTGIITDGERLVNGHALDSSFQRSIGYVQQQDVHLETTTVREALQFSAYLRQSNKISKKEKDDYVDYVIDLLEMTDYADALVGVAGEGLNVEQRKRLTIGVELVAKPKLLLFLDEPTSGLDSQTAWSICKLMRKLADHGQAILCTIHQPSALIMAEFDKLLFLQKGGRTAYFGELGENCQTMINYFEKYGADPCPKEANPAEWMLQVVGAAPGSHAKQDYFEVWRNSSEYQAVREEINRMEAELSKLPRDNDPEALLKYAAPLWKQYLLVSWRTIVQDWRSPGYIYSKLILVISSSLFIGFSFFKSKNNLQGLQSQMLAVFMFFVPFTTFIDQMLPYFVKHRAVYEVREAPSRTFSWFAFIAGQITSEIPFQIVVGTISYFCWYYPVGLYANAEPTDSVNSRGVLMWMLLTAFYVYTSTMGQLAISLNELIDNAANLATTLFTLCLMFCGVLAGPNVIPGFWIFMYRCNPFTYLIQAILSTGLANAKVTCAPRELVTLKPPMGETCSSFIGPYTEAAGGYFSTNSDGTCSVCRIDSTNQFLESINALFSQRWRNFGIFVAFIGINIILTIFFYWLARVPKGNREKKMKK
Chain of Alkaline phosphatase, placental type (P05187 whole entry): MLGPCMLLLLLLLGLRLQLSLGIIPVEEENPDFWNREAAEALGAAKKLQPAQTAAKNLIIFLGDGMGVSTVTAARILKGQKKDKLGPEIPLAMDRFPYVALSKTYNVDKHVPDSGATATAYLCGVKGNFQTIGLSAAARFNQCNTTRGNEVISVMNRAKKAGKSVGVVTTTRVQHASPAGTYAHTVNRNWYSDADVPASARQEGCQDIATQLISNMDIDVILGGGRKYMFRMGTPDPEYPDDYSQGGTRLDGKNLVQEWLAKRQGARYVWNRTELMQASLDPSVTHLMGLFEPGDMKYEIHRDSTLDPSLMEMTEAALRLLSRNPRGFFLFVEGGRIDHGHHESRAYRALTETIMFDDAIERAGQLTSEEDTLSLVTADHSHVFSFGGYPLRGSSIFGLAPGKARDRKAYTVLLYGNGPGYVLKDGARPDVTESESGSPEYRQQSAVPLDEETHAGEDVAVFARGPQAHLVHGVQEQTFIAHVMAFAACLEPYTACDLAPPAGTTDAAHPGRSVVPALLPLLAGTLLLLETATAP

Usually IC50 stands for the point on the concentration scale where inhibition reaches its midpoint. As a reminder, the CC50 is the concentration at which the toxic effect on the cells reaches its halfway point. On to `CCCN1CCN(CCCNC(=O)c2cc3c(s2)-c2c(C)cccc2OC3)CC1`, for which the IC50 was 10.4 µM (active) in [1], > 20 µM (inactive) in assay [3] and > 40 µM (active) with Vero [6]. The results for the CC50 in the assay with Vero [2], in the assay with Vero [4] and in the assay with Vero [5] were 12.3 µM (active), 28.4 µM (active) and 12.4 µM (active), respectively.
Take `O=C1c2ccccc2C(=O)N1c1nc(Cc2ccccc2)n[nH]1`: the IC50 in assay [7] is > 100 µM (inactive); in assay [8], > 100 µM (not active).
With `COc1cc(/C=C2/SC(=S)N(c3c(C)n(C)n(-c4ccccc4)c3=O)C2=O)ccc1O`, the IC50 on Insulin-degrading enzyme was 7.99 µM (active); in assay [9], 62.4 µM (active); in [10], > 55.7 µM (not active); in assay [11] it was 12.7 µM (active); in [12], 43.7 µM (active); in assay [13] it was 24.4 µM (active). The results for the IC50 (on Prothrombin; in [14]) were 68.1 µM (active) and more than 32 µM, respectively. The EC50 at Beta-galactosidase is 13 µM (active).
As for `O=C(CS(=O)(=O)Cc1ccccc1)N1CCc2ccccc21`, in the assay on T-cell, the EC50 was 14.1 µM (active).
Turning to `COc1cc(Cl)c(C)cc1NC(=O)COC(=O)c1ccc(NC(N)=O)cc1`, the IC50 in assay [15] and in [16] was > 100 µM (inactive) each time.
For the compound `COc1ccc(C(=O)Nc2cc(OC)ccc2C(=O)O)cc1`, the IC50 on Hexokinase was > 25 µM (inactive).
A word on the AC50: it is the concentration at which the activity in the assay is half-maximal. Take `Cc1ccc(C(=O)c2c3ccc(C(F)(F)F)cc3nn2CCC(N)=O)cc1`: the figures for the concentration at half-maximal activity (AC50) at CAAX prenyl protease 2 and on Trypsin were 3.73 µM (active) and > 100 µM (inactive), respectively.
In the case of `COc1ccc(-c2sc3ccccc3c2-c2ccc(OCCN(C)C)cc2)cc1`, the EC50 was 57.1 µM (active) in assay [17], > 57 µM (inactive) at Integrin alpha-4 and > 89.2 µM (inactive) on Melanocortin receptor 4. Moreover, the IC50 in assay [3] was > 20 µM (inactive). Also, the AC50 on Paired box protein Pax-8 is 13 µM (active); in assay [18] it was 3.45 µM (active); in assay [19] it was 1.69 µM (active); in the assay on INS1, 8.01 µM (active).
With `CCOC(=O)c1ccc(Nc2nc(N)c3cc(OC)c(OC)cc3n2)cc1`, the IC50 in assay [20] was > 80 µM (inactive); in [21] it was > 79 µM (inactive).
